Experimental data: US11524968B2, “Heterocyclic compound as a protein kinase inhibitor” (HK inno.N Corporation, priority 2017, dated 2022)
pIC50: −log10 of the molar value.

Biological target: JAK1 (Homo sapiens (Human), UniProt P23458)
Test: Analysis of JAK1 activity inhibition ability (ADP-Glo Kinase Assay)
Assay type: biochemical
Conditions: JAK1 enzyme, ADP-Glo luminescence, ATP 250 uM, IRS-itide substrate, 30° C. 40 minutes; read-out: IC50
Outline: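 ADP-Glo luminescence read-out of ADP production, with IC50 taken as the concentration halving JAK1 activity relative to control. Enzyme was incubated 40 min at 30 °C with compound, IRS-itide (40 ng/mL) and ATP (250 uM), concentrations as prepared in pH 7.5 Tris-HCl/MgCl2/BSA/DTT buffer.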

Chain of JAK1 (P23458 whole entry): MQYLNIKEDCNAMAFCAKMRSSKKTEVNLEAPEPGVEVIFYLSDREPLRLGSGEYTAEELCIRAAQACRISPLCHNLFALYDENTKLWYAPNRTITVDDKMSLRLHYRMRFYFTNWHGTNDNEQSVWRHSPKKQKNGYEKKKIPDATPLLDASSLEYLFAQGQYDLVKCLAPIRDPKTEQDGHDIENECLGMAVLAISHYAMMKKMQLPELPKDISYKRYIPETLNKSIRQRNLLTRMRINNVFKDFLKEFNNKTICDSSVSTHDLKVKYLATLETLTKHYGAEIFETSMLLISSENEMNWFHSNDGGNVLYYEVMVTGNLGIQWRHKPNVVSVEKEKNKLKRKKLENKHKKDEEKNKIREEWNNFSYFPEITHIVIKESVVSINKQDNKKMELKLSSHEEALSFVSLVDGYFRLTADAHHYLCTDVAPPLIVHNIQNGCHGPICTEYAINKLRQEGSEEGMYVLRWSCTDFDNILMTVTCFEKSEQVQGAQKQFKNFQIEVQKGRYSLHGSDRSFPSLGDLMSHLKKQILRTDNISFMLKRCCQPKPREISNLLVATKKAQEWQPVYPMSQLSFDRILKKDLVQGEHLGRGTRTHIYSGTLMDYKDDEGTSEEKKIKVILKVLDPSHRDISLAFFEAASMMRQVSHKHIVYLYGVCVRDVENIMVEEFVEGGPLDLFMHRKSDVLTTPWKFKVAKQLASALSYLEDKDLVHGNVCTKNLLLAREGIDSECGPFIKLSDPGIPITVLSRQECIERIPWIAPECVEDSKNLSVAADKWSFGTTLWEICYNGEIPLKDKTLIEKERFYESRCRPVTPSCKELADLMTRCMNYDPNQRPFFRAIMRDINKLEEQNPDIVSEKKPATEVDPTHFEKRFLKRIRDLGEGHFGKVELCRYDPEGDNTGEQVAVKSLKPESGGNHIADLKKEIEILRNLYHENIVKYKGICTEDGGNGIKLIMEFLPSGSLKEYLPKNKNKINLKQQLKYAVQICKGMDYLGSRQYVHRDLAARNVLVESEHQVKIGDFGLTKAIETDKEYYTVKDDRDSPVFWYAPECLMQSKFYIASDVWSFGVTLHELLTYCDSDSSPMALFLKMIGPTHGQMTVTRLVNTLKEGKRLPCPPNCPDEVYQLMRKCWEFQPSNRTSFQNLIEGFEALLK

Row | SMILES | pIC50
1 | CC(C)=C(C#N)C(=O)N1CC=C(c2cc(NC(=O)C3CC3)nc3[nH]ccc23)[C@H](C)C1 [Example 408, (S)—N-(4-(1-(2-cyano-3-methylbut-2-enoyl)-3-methyl-1,2,3,6-tetrahydropyridin-4-yl)-1H-pyrrolo[2,3-b]pyridin-6-yl)cyclopropanecarboxamide] | 6.70 to 7.70
2 | CCC1CC(c2cc(NC(=O)C3CC3)nc3[nH]ccc23)=CCN1C(=O)CC#N (stereo in doubt) [Example 417, (R)—N-(4-(1-(2-cyanoacetyl)-2-ethyl-1,2,3,6-tetrahydropyridin-4-yl)-1H-pyrrolo[2,3-b]pyridin-6-yl)cyclopropanecarboxamide] | > 7.70
3 | O=C(Nc1cc(C2=CCN(C(=O)C3CCS(=O)(=O)CC3)CC2)c2cc[nH]c2n1)C1CC1 [Example 249, N-(4-(1-(1,1-dioxidotetrahydro-2H-thiopyran-4-carbonyl)-1,2,3,6-tetrahydropyridin-4-yl)-1H-pyrrolo[2,3-b]pyridin-6-yl)cyclopropanecarboxamide] | 6.70 to 7.70
4 | O=C(Nc1cc(-c2ccc(CN3CCS(=O)(=O)CC3)cc2)c2cc[nH]c2n1)C1CC1 [Example 584, N-(4-(4-((1,1-dioxidothiomorpholino)methyl)phenyl)-1H-pyrrolo[2,3-b]pyridin-6-yl)cyclopropanecarboxamide] | > 7.70
5 | O=C(Nc1cc(C2=CCN(C(=O)c3cscn3)CC2)c2cc[nH]c2n1)C1CC1 [Example 291, N-(4-(1-(thiazole-4-carbonyl)-1,2,3,6-tetrahydropyridin-4-yl)-1H-pyrrolo[2,3-b]pyridin-6-yl)cyclopropanecarboxamide] | < 6.70
6 | CC(C)(C)OC(=O)N1CC2CCC(C1)N2c1cc(NC(=O)C2CC2)nc2[nH]ccc12 [Example 694, tert-butyl 8-(6-(cyclopropanecarboxamido)-1H-pyrrolo[2,3-b]pyridin-4-yl)-3,8-diazabicyclo[3.2.1]octane-3-carboxylate] | < 6.70
7 | N#CCCCS(=O)(=O)Nc1cc(F)c(-c2cc(NC(=O)C3CC3)nc3[nH]ccc23)cc1F [Example 104, N-(4-(4-((3-cyanopropyl)sulfonamido)-2,5-difluorophenyl)-1H-pyrrolo[2,3-b]pyridin-6-yl)cyclopropanecarboxamide] | 6.70 to 7.70
8 | O=C(Nc1cc(-c2ccc(CC(=O)N3CC[S+]([O-])CC3)cc2)c2cc[nH]c2n1)C1CC1 [Example 574, N-(4-(4-(2-(1-oxidothiomorpholino)-2-oxoethyl)phenyl)-1H-pyrrolo[2,3-b]pyridin-6-yl)cyclopropanecarboxamide] | 6.70 to 7.70
9 | O=C(Nc1cc(-c2ccc(CNC(=O)N3CCS(=O)(=O)CC3)cc2)c2cc[nH]c2n1)C1CC1 [Example 580, N-(4-(6-(cyclopropanecarboxamido)-1H-pyrrolo[2,3-b]pyridin-4-yl)benzyl)thiomorpholine-4-carboxamide 1,1-dioxide] | 6.70 to 7.70
10 | CCS(=O)(=O)Nc1ccc(-c2cc(NC(=O)C3CC3)nc3[nH]ccc23)cn1 [Example 148, N-(4-(6-(ethylsulfonamido)pyridin-3-yl)-1H-pyrrolo[2,3-b]pyridin-6-yl)cyclopropanecarboxamide] | 6.70 to 7.70
11 | O=C(Nc1cc(C2=CCN(C(=O)C3CC3(F)F)CC2)c2cc[nH]c2n1)C1CC1 (centres unmarked) [Example 263, N-(4-(1-(2,2-difluorocyclopropane-1-carbonyl)-1,2,3,6-tetrahydropyridin-4-yl)-1H-pyrrolo[2,3-b]pyridin-6-yl)cyclopropanecarboxamide] | > 7.70
12 | O=C(Nc1cc(-c2ccc(NS(=O)(=O)CF)cc2)c2cc[nH]c2n1)C1CC1 [Example 49, N-(4-(4-((fluoromethyl)sulfonamido)phenyl)-1H-pyrrolo[2,3-b]pyridin-6-yl)cyclopropanecarboxamide] | 6.70 to 7.70
13 | O=C(Nc1nc(-c2ccc(NS(=O)(=O)CCCC(F)(F)F)cc2)c2nc[nH]c2n1)C1CC1 [Example 211, N-(6-(4-((4,4,4-trifluorobutyl)sulfonamido)phenyl)-9H-purin-2-yl)cyclopropanecarboxamide] | < 6.70
14 | N#CC1(C(=O)N2CC=C(c3cc(NC(=O)C4CC4)nc4[nH]ccc34)CC2)CC1 [Example 259, N-(4-(1-(1-cyanocyclopropane-1-carbonyl)-1,2,3,6-tetrahydropyridin-4-yl)-1H-pyrrolo[2,3-b]pyridin-6-yl)cyclopropanecarboxamide] | < 6.70
15 | O=C(Nc1cc(C2=CCN(C(=O)c3ccno3)CC2)c2cc[nH]c2n1)C1CC1 [Example 288, N-(4-(1-(isoxazole-5-carbonyl)-1,2,3,6-tetrahydropyridin-4-yl)-1H-pyrrolo[2,3-b]pyridin-6-yl)cyclopropanecarboxamide] | 6.70 to 7.70
16 | CC1CN(C(=O)c2cc3ccccc3o2)CC=C1c1cc(NC(=O)C2CC2)nc2[nH]ccc12 (centres unmarked) [Example 352, N-(4-(1-(benzofuran-2-carbonyl)-3-methyl-1,2,3,6-tetrahydropyridin-4-yl)-1H-pyrrolo[2,3-b]pyridin-6-yl)cyclopropanecarboxamide] | 6.70 to 7.70

Row | SMILES | pIC50
17 | O=C(Nc1cc(-c2ccc(NS(=O)(=O)C3CC3)c(F)c2)c2cc[nH]c2n1)C1CC1 [Example 69, N-(4-(4-(cyclopropanesulfonamido)-3-fluorophenyl)-1H-pyrrolo[2,3-b]pyridin-6-yl)cyclopropanecarboxamide] | > 7.70
18 | O=C(Nc1cc(N2CC3CCC(C2)N3C(=O)NCC(F)(F)F)c2cc[nH]c2n1)C1CC1 [Example 691, 3-(6-(cyclopropanecarboxamido)-1H-pyrrolo[2,3-b]pyridin-4-yl)-N-(2,2,2-trifluoroethyl)-3,8-diazabicyclo[3.2.1]octane-8-carboxamide] | > 7.70
19 | O=C(Nc1cc(-c2cnn(C3CN(S(=O)(=O)C4CCCCC4)C3)c2)c2cc[nH]c2n1)C1CC1 [Example 606, N-(4-(1-(1-(cyclohexylsulfonyl)azetidin-3-yl)-1H-pyrazol-4-yl)-1H-pyrrolo[2,3-b]pyridin-6-yl)cyclopropanecarboxamide] | < 6.70
20 | O=C(Nc1cc(-c2cnn(C3CCN(S(=O)(=O)C(F)(F)F)CC3)c2)c2cc[nH]c2n1)C1CC1 [Example 609, N-(4-(1-(1-((trifluoromethyl)sulfonyl)piperidin-4-yl)-1H-pyrazol-4-yl)-1H-pyrrolo[2,3-b]pyridin-6-yl)cyclopropanecarboxamide] | 6.70 to 7.70
21 | Cc1nn(CCC#N)c(C)c1-c1cc(NC(=O)C2CC2)nc2[nH]ccc12 [Example 480, N-(4-(1-(2-cyanoethyl)-3,5-dimethyl-1H-pyrazol-4-yl)-1H-pyrrolo[2,3-b]pyridin-6-yl)cyclopropanecarboxamide] | 6.70 to 7.70
22 | CCc1cc(-c2cc(NC(=O)C3CC3)nc3[nH]ccc23)cc(CC)c1NS(=O)(=O)c1ccc(F)c(F)c1 [Example 139, N-(4-(4-((3,4-difluorophenyl)sulfonamido)-3,5-diethylphenyl)-1H-pyrrolo[2,3-b]pyridin-6-yl)cyclopropanecarboxamide] | < 6.70
23 | O=C(Nc1nc(-c2ccc(NCc3ccc(F)cc3)cc2)c2cc[nH]c2n1)C1CC1 [Example 473, N-(4-(4-((4-fluorobenzyl)amino)phenyl)-7H-pyrrolo[2,3-d]pyrimidin-2-yl)cyclopropanecarboxamide] | > 7.70
24 | Cc1nnn(Cc2ccc(-c3cc(NC(=O)C4CC4)nc4[nH]cnc34)cc2)n1 [Example 593, N-(7-(4-((5-methyl-2H-tetrazol-2-yl)methyl)phenyl)-3H-imidazo[4,5-b]pyridin-5-yl)cyclopropanecarboxamide] | < 6.70
25 | N#CC1CCN(C(=O)Cc2ccc(-c3cc(NC(=O)C4CC4)nc4[nH]ccc34)cc2)C1 (centres unmarked) [Example 567, N-(4-(4-(2-(3-cyanopyrrolidin-1-yl)-2-oxoethyl)phenyl)-1H-pyrrolo[2,3-b]pyridin-6-yl)cyclopropanecarboxamide] | 6.70 to 7.70
26 | O=C(Nc1cc(-c2ccc(NS(=O)(=O)C3CC3)cc2)c2cc[nH]c2n1)C1CC1 [Example 57, N-(4-(4-(cyclopropanesulfonamido)phenyl)-1H-pyrrolo[2,3-b]pyridin-6-yl)cyclopropanecarboxamide] | > 7.70
27 | O=C(Nc1cc(-c2ccc(NC3CCN(C(=O)Nc4ccccc4)CC3)c(F)c2)c2cc[nH]c2n1)C1CC1 [Example 498, 4-((4-(6-(cyclopropanecarboxamido)-1H-pyrrolo[2,3-b]pyridin-4-yl)-2-fluorophenyl)amino)-N-phenylpiperidine-1-carboxamide] | 6.70 to 7.70
28 | N#CCCCS(=O)(=O)N1C2CCC1CN(c1cc(NC(=O)C3CC3)nc3[nH]ccc13)C2 [Example 664, N-(4-(8-((3-cyanopropyl)sulfonyl)-3,8-diazabicyclo[3.2.1]octan-3-yl)-1H-pyrrolo[2,3-b]pyridin-6-yl)cyclopropanecarboxamide] | 6.70 to 7.70
29 | N#CC1(CS(=O)(=O)N2CC=C(c3cc(NC(=O)C4CC4)nc4[nH]ccc34)CC2)CC1 [Example 172, N-(4-(1-(((1-cyanocyclopropyl)methyl)sulfonyl)-1,2,3,6-tetrahydropyridin-4-yl)-1H-pyrrolo[2,3-b]pyridin-6-yl)cyclopropanecarboxamide] | 6.70 to 7.70
30 | CCNC(=S)N1C2C=C(c3cc(NC(=O)C4CC4)nc4[nH]ccc34)CC1CC2 (centres unmarked) [Example 469, N-(4-(8-(ethylcarbamothioyl)-8-azabicyclo[3.2.1]oct-2-en-3-yl)-1H-pyrrolo[2,3-b]pyridin-6-yl)cyclopropanecarboxamide] | > 7.70
31 | N#Cc1ccc(COc2ccc(-c3nc(NC(=O)C4CC4)nc4[nH]cnc34)cc2)cn1 [Example 644, N-(6-(4-((6-cyanopyridin-3-yl)methoxy)phenyl)-9H-purin-2-yl)cyclopropanecarboxamide] | < 6.70
32 | CN(C)c1nc(-c2ccc(NS(=O)(=O)c3ccc(F)c(F)c3)cc2)c2cc[nH]c2n1 [Example 718, N-(4-(2-(dimethylamino)-7H-pyrrolo[2,3-d]pyrimidin-4-yl)phenyl)-3,4-difluorobenzenesulfonamide] | < 6.70
